Entries after “also recorded” stand apart in the source; their conditions may differ.
How the values were obtained:
[1] = test system: male C57BL/6J mice fed C or WD; assay: Prevention experiment: MLN4924 twice/week during 16 weeks of WD feeding; assay type: in vivo
Protocol: Mice fed WD became obese and insulin resistant. For both cohorts, body weight was measured weekly. Male C57BL/6J mice were fed C or WD for 16 weeks. Vehicle or MLN4924 (60 mg/kg) was administered via SQ injection twice/week for 16 weeks. Results are mean ±SEM. n=5-7. “*”, vs C+Veh; “#”, vs. WD+Veh, p<0.05.
(§1) Male C57BL/6J mice were purchased from the Jackson Laboratory (Bar Harbor, ME). Mice were fed a regular chow (C) diet or a Western diet (WD) that contains 42% fat calories and 0.2% cholesterol content (TD. 88137, Envigo Inc. Indianapolis, IN).
(§2) MLN4924 and TAS4464 were purchased from MedChemExpress (MCE, Monmouth Junction, NJ). For cell treatment, MLN4924 and TAS4464 were dissolved in DMSO. Cells were serum starved overnight and then treated with MLN4924, TAS4464 and/or insulin as indicated. For injection in mice, MLN4924 and TAS4464 were first dissolved in DMSO, which was further suspended in 10% (2-hydroxypropyl)-β-cyclodextrin (Sigma, St. Louis, MO). The final solution contains 1% DMSO. The subcutaneous injection volume is 200 µl/mouse.
(§3) Lipids were extracted in a mixture of chloroform: methanol (2:1; v: v), dried under nitrogen, and resuspended in isopropanol containing 1% triton X-100. Total cholesterol, free cholesterol and TG were measured with assay kits following the manufacturer’s instruction. Total cholesterol assay kit and TG assay kit were purchased from Pointe Scientific (Canton, MI).
(§4) Aspartate aminotransferase (AST) and alanine aminotransferase (ALT) assay kits were purchased from Pointe Scientific (Canton, MI). Free fatty acid assay kit was purchased from Biovision Inc. (Milpitas, CA). Insulin ELISA kit was purchased from Crystal Chem Inc. (Elk Grove Village, IL).
(§5) Next investigated was the glucose lowering effect of CRL inhibition in mice rendered obese and insulin resistant by 16-weeks of WD feeding. […] Next conducted was an intervention study in which MLN4924 treatment was initiated after mice were fed WD for 8 weeks that rendered mice obese and insulin resistant. […] In summary, robust evidence is provided herein that pharmacological CRL inhibition is an effective approach to lowering hyperglycemia.

[2] = test system: male C57BL/6J mice fed C or WD; assay: Intervention study: MLN4924 initiated after 8 weeks of WD feeding; assay type: in vivo
Protocol: MLN4924 (60 mg/kg, SQ) was given every other day for the last 8 weeks of the 16-week feeding. For both cohorts, body weight was measured weekly. Results are mean ±SEM. n=5-7. “*”, vs C+Veh; “#”, vs. WD+Veh, p<0.05. ns= Not significant.
Male C57BL/6J mice were fed chow or WD for 16 weeks. Vehicle or MLN4924 treatment (60 mg/kg, SQ, once every two days) was initiated after 8 weeks of WD feeding. Analyses were performed after 16 weeks of feeding. Results are mean ± SEM. n=5-8. “*”, vs C+Veh; “#”, vs. WD+Veh, p<0.05. Normalized densitometry was shown in low panel bar graphs.
as §1, §2, §3, §4, §5

obese mice = assay: Hyperinsulinemic-euglycemic clamp study; assay type: in vivo
Protocol: A hyperinsulinemic-euglycemic clamp study was conducted in which obese mice were treated with vehicle or MLN4924.

[3] = test system: primary human hepatocytes; assay: Western blot of insulin signaling in primary human hepatocytes; assay type: cell-based
Protocol: Cells were pre-treated with increasing dose of MLN4924 for 1 h followed by 100 nM insulin stimulation for 4 h. Western blot was then performed to evaluate insulin signaling activation reflected by AKT phosphorylation.
Cells were treated with MLN4924 for 8 h. IRS1 band densitometry is shown as mean ± SEM of 8-9 independent batches. “* ”, vs. Vehicle, p less than 0.05.
Cells were treated with MLN4924 for 8 h. IRS2 band densitometry is shown as mean ± SEM of 8-9 independent batches. “* ”, vs. Vehicle, p less than 0.05.
FIG. 18B is a Western blot analysis showing that MLN4924 enhances hepatocyte insulin responsiveness (signaling) by delaying feedback IRS degradation. Primary human hepatocytes cells were serum starved for 16 h. Cells were then pre-treated with MLN4924 for 1 h followed by insulin stimulation for 4 h.
IRS protein in IRS 1 and IRS2 band intensity was normalized to Actin band intensity. n=8-9. “*”, p<0.05 (unpaired t-test), vs. Vehicle.
AML12 cells were a generous gift from Dr. Yanqiao Zhang (Northeast Ohio Medical University). AML12 cells were cultured in DMEM medium supplemented with a mixture of insulin-transferrin-selenium (#41400-045, ThermoFisher, Waltham, MA). For experiments, cells were cultured in serum free medium overnight before various treatments were initiated. The siGENOME SMARTpool siRNA and siControl were purchased from Dharmacon, Inc. (Lafayette, CO). […]

[4] = test system: differentiated C2C12 myocytes; assay: Western blot of insulin signaling in differentiated C2C12 myocytes; assay type: cell-based; conditions: 500 nM, 1 h, then 100 nM insulin in time course
Protocol: Differentiated C2C12 myocytes were pre-treated with MLN4924 (500 nM) for 1 h followed by 100 nM insulin treatment in time course.
C2C12 myoblast cells were cultured in DMEM medium supplemented with 10% FBS. When cells grow to 60% confluency, differentiation into myocytes was induced by culturing cells in DMEM supplemented with 2% horse serum for 4-6 days. Cells were then serum starved overnight and treated with 500 nM MLN4924 or DMSO for 6 h and then stimulated with 100 nM insulin for 1 hour as indicated. Glucose uptake was measured with a Glucose uptake Glo^tm assay kit that was purchased from Promega (Madison, WI).
Skeletal muscle is a major organ that is responsible for the majority of the blood glucose clearance during postprandial state. Insulin resistance in muscle causes impaired insulin-stimulated glucose uptake that contributes to hyperglycemia in diabetes. To determine if CRL inhibition in muscle cells may contribute to the insulin sensitizing and glucose lowering effect in obese mice, differentiated C2C12 myocytes were treated with MLN4924 to inhibit CRLs (FIG. 8A). […] To further determine if MLN4924 treatment increases muscle glucose clearance, a glucose tolerance test (GTT) was performed, in which reduction of glucose excursion is mainly attributed to blood glucose clearance by muscle.

[5] = WD 16 weeks, 60 mg/kg SQ twice/week
[6] = WD 16 weeks, 60 mg/kg SQ every other day for last 8 weeks

NS(=O)(=O)OC[C@@H]1C[C@@H](n2ccc3c(N[C@H]4CCc5ccccc54)ncnc32)C[C@@H]1O [MLN4924, ((1S,2S,4R)-4-(4-((1S)-2,3-dihydro-1H-inden-1-ylamino)-7H-pyrrolo[2,3-d]pyrimidin-7-yl)-2-hydroxycyclopentyl) methyl sulfamate]
tolerability / hepatotoxicity ([1]; 16 weeks of MLN4924, 60 mg/kg SQ twice/week): well tolerated and did not cause hepatotoxicity | transaminase (ALT) elevation ([1]; C-fed mice, after 16 weeks of MLN4924): did not cause transaminase (ALT) elevation | blood glucose (6 h fast) [1, 5]: completely normalized blood glucose | reduction of hepatic cholesterol [1, 5]: ~ 30% | reduction of hepatic triglycerides (TG) [1, 5]: ~ 40% | serum ALT ([1]; WD-fed mice, 16 weeks of MLN4924): significantly reduced | blood glucose (6 h fast) [2, 6]: normalized blood glucose | hepatic steatosis as measured by liver TGs [2, 6]: lowered hepatic steatosis | serum AST [2, 6]: decreased serum AST | liver IRS protein abundance ([2]; WD 16 weeks, 60 mg/kg SQ once every two days after 8 weeks): increases liver IRS protein abundance | hepatic AKT phosphorylation ([2]; chronic WD-fed mice): increased hepatic AKT phosphorylation | glucose infusion rate (obese mice): ~ 30 mg/kg/min | plasma insulin level during the clamp procedure (obese mice): ~ 3.75 ng/ml | IRS1 and IRS2 protein abundance ([3]; MLN4924 (500 nM) 8 h, independent batches): consistently increased IRS1 and IRS2 protein abundance; also recorded: increased IRS protein abundance | insulin activation of AKT ([3]; MLN4924 pre-treatment 1 h, 100 nM insulin 4 h): enhanced insulin activation of AKT; also recorded: increased IRS protein abundance and insulin-stimulated AKT activation | IRS1 and IRS2 degradation upon insulin stimulation [4]: delayed IRS1 and IRS2 degradation | insulin activation of AKT phosphorylation [4]: increased insulin activation of AKT phosphorylation

Reference: patent US20230218654A1, “COMPOSITIONS AND METHODS FOR TREATING HYPERGLYCEMIA IN TYPE-2 DIABETES” (The Board of Regents of the university of Oklahoma, priority 2020, published 2023)
